The numbers were not newly measured in patent publication US12367980B2, “Methods for predicting treatment response in cancers” (Cancer Research Technology Limited, priority 2020, dated 2025), which cites them from elsewhere.

Like-named read-outs stand apart in the source and are kept apart here.

For the data set, the system named is ovarian cancer patients. The conditions noted are these: for response rate to Doxorubicin monotherapy: expected rate from clinical trials.

Turning to `COc1cccc2c1C(=O)c1c(O)c3c(c(O)c1C2=O)C[C@@](O)(C(=O)CO)C[C@@H]3O[C@H]1C[C@H](N)[C@H](O)[C@H](C)O1` [Doxorubicin, doxorubicin], the “response rate to Doxorubicin monotherapy” value reads like this: (patients resistant to platinum chemotherapy) 18%; (platinum sensitive patients (Gordon et al., 2001)) 28%. Besides, the “response rate to doxorubicin” value reads like this: (platinum resistant ovarian cancer patients) 18%; (platinum sensitive ovarian cancer patients) 52%.
